Substitutions are numbered along the chain they refer to.
Assays:
[1] = test system: PC9 cells; assay: cells; settings: Homo sapiens, PC-9, 48 h, read-out: % Viability PC9
[2] = test system: PBMCs
[3] = biological target: T1, GFP-GPX4^K125R_K127R (Homo sapiens, UniProt P36969, K152R/K154R); assay: Degradation of GFP-GPX4^K125R_K127R in HT-1080 cells; type: cell-based
T1 construct: expressed in transfected cells

[4] = biological target: T2, GFP-GPX4^WT (Homo sapiens, UniProt P36969); assay: Degradation of GPX4 and GFP-GPX4^WT with MG-132; type: cell-based; settings: 1.0 μM ± MG-132 (10 μM), 18 hours
T2 construct: expressed in transfected cells; host or cells: HT-1080 overexpressing GFP-GPX4^WT

[5] = biological target: T3, GPX4^U46C (Homo sapiens, UniProt P36969, U73C); assay: Intact protein MALDI MS analysis; type: binding; settings: 150 μM
T3 construct: made in house; host or cells: E. coli BL21-Gold (DE3)
T3 sequence (P36969 1-170 isoform P36969-2 U46C): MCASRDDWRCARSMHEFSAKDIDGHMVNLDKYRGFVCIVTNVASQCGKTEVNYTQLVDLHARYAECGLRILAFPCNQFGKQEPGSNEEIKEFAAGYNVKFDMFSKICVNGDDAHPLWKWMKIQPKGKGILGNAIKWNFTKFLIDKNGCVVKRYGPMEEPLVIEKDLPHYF

[6] = biological target: T4, GPX1 (Homo sapiens, UniProt P07203); assay: Degradation of endogenous GPX1 in HT-1080 cells; type: cell-based; design: endogenous in cells
T4 sequence (P07203 1-203): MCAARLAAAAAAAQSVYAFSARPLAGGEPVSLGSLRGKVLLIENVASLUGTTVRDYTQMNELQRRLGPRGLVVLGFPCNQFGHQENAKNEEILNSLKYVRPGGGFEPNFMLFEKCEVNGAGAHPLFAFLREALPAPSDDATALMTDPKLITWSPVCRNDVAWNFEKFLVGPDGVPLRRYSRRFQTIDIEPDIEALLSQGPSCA

[7] = biological target: T5, GPX4 (Homo sapiens, UniProt P36969); assay: Cellular thermal shift assay (CETSA), GPX4; type: cell-based; design: To prepare the cell lysate containing native GPX4, A-673 cells were cultured; endogenous in cells; host or cells: A-673 cell lysate; settings: 10 μM compound for 1 h
T5 sequence (P36969 1-170 isoform P36969-2): T3 sequence (P36969 1-170 isoform P36969-2 U46C) with C46U

T2 sequence (P36969 28-197): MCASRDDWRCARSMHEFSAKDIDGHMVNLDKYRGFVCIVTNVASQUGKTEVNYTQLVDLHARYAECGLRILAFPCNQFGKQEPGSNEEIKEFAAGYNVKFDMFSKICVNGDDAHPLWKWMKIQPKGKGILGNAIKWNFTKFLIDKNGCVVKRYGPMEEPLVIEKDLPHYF
T1 sequence (P36969 28-197 K152R/K154R): as the sequence (P36969 28-197) above, with K125R, K127R counted along it

**Q.** For `Cn1nc(C(=O)NC(C)(C)COC(=O)CCl)c2ccc(Br)cc21` [QW-314], which viability at 10 µM [1] is on record?
**A.** The viability at 10 µM was 62%.

**Q.** With `COc1ccc(-c2ccc3c(C(=O)NC(C)(C)COC(=O)CCl)nn(C)c3c2)cc1Cl` [QW-446] as the compound, how does the “Plasma Stability t1/2 (min) mouse” value read?
**A.** Its value is 24.0 min.

**Q.** With `CC(C)(COC(=O)CCl)NC(=O)c1nn(Cc2cc(Cl)cc(Cl)c2)c2cc(-c3ccc(N4CCOCC4)c(Cl)c3)ccc12` [QW-852] as the compound, how does the “selectivity in cancer cells compared to PBMCs” value [2] read?
**A.** The value was “Over 10 fold”.

**Q.** What about the “degradation of GFP-GPX4^K125R_K127R” value [3] of the same compound?
**A.** The value was “but not by QW-852”.

**Q.** What about the “GPX4 degradation with MG-132” value [4] of the same compound?
**A.** Its value is “effectively blocked by MG-132”.

**Q.** And the “covalent binding to GPX4^U46C (mass shift)” value [5]?
**A.** Its value is “lower potency than RSL3 to covalently bind to GPX4^U46C”.

**Q.** And the GPX1 degradation [6]?
**A.** The GPX1 degradation was “less effective at degrading GPX1”.

**Q.** And the “thermal stability of GPX4” value [7]?
**A.** Its value is “stabilizing the protein”.

**Q.** With `COC(=O)c1ccc([C@@H]2c3[nH]c4ccccc4c3C[C@@H](C(=O)OC)N2C(=O)CCl)cc1` [RSL3, reference compound] as the compound, how does the “Plasma Stability t1/2 (min) mouse” value read?
**A.** Its value is 5.2 min.

— patent publication US20250248979A1, “NOVEL GPX4 INHIBITORS AND USES THEREOF” (THE TRUSTEES OF COLUMBIA UNIVERSITY IN THE CITY OF NEW YORK, priority 2022, published 2025)
